Test results published in US20110039763A1, “TARGETED ANTIMICROBIAL MOIETIES” (C3 JIAN, INC., priority 2009, published 2011).
“Also recorded” adds a separate entry of the source.

Experiments:
[1] = system: microorganisms; test: Targeting peptide binding to target microorganisms (Tables 3, 10, 12); settings: preferably 1x PBS; for Target(s): microorganism(s) the targeting peptide binds; for Target(s) (microorganism bound by the targeting peptide): peptide binding in aqueous buffers that varied with peptide solubility
[2] = system: microorganisms; test: Morphology, biofilm and growth disrupting peptides (Table 5); assay type: cell-based; parameters: key: A: Peptide aggregates; B: Less hyphal formation; Clumps; Diffuse clumps and small polyps; F: Diffuse growth; H: Thin; I: Growth inhibition; Microcolony formation; Rippled; Small polyps; Thick; W: Halo formation on top, microlonies on bottom
Text: In certain embodiments peptides that induce alterations in phenotype or other biological activities can also be used as antimicrobial effector moieties.

[3] = binding in aqueous buffers varied with peptide solubility
[4] = binding in aqueous buffers that varied with peptide solubility

Substance	Target(s) [1, 3]	Organism, effect ([2]; S. pneumoniae)	other results
PF-692 (GVAREDPLEPDPLAPIIDDSR; Peptide with targeting and/or antimicrobial activity)	Mycobacteria spp	–	Organism, effect ([2]; MRSA): MRSA (R)
PF-684 (RKLSLASGFALWRRSLV; Peptide with targeting and/or antimicrobial activity)	Mycobacteria spp	S. pneumoniae (C)	Organism, effect ([2]; C. albicans): C. albicans (B); Organism, effect ([2]; E. faecalis): E. faecalis (A)
PF-662 (chain 1 GKQSRAHGPVASRREFRRKSG; chain 2 GKQSRAHGPVASRREFRRKSG; Peptide with targeting and/or antimicrobial activity)	Mycobacteria spp	S. pneumoniae (A)	–
PF-700 (LNWPFTGR; Peptide with targeting and/or antimicrobial activity)	Mycobacteria spp	S. pneumoniae (C)	–
PF-665 (chain 1 VLRVATAVGEVPTGL; chain 2 VLRVATAVGEVPTGL; Peptide with targeting and/or antimicrobial activity)	Mycobacteria spp	S. pneumoniae (H)	–
PF-663 (chain 1 ATLIPRKA; chain 2 ATLIPRKA; Peptide with targeting and/or antimicrobial activity)	Mycobacteria spp	S. pneumoniae (A)	–
PF-677 (TCRGAGMH; Peptide with targeting and/or antimicrobial activity)	Mycobacteria spp	S. pneumoniae (D)	Organism, effect ([2]; E. faecalis): E. faecalis (R); Organism, effect ([2]; MRSA): MRSA (D); Organism, effect ([2]; S. epidermidis): S. epidermidis (R)
PF-687 (AKRVLSLAVAPHRRQPVQGT; Peptide with targeting and/or antimicrobial activity)	Mycobacteria spp	S. pneumoniae (A)	–
PF-644 (chain 1 TSGLIIGENGLNGL; chain 2 TSGLIIGENGLNGL; Peptide with targeting and/or antimicrobial activity)	Mycobacteria spp	S. pneumoniae (H)	–
PF-697 (RADARAK; Peptide with targeting and/or antimicrobial activity)	Mycobacteria spp	S. pneumoniae (H)	Organism, effect ([2]; C. albicans): C. albicans (H)
PF-688 (ARNHAVIPAG; Peptide with targeting and/or antimicrobial activity)	Mycobacteria spp	S. pneumoniae (A)	–
PF-696 (IRSGISAAYARPLR; Peptide with targeting and/or antimicrobial activity)	Mycobacteria spp	S. pneumoniae (H)	–
PF-660 (chain 1 TDPQATAAPRRRTSPR; chain 2 TDPQATAAPRRRTSPR; Peptide with targeting and/or antimicrobial activity)	Mycobacteria spp	S. pneumoniae (H)	–
PF-652 (chain 1 FLAPARPDLQAQRQALAQ; chain 2 FLAPARPDLQAQRQALAQ; Peptide with targeting and/or antimicrobial activity)	Mycobacteria spp	S. pneumoniae (A)	–
PF-657 (chain 1 YVANYTITQFGRDFDDRLAVAIHFA; chain 2 YVANYTITQFGRDFDDRLAVAIHFA; Peptide with targeting and/or antimicrobial activity)	Mycobacteria spp	S. pneumoniae (H)	Organism, effect ([2]; C. jeikeium): C. jeikeium (D); Organism, effect ([2]; E. faecalis): E. faecalis (D); Organism, effect ([2]; MRSA): MRSA (D); Organism, effect ([2]; S. epidermidis): S. epidermidis (C)
PF-659 (chain 1 TVIST; chain 2 TVIST; Peptide with targeting and/or antimicrobial activity)	Mycobacteria spp	S. pneumoniae (C)	Organism, effect ([2]; B. subtilis): B. subtilis (H); Organism, effect ([2]; MRSA): MRSA (R); Organism, effect ([2]; S. epidermidis): S. epidermidis (M)
PF-667 (chain 1 PAHQRLRIDQRLVADRDMVQDYES; chain 2 PAHQRLRIDQRLVADRDMVQDYES; Peptide with targeting and/or antimicrobial activity)	Mycobacteria spp	S. pneumoniae (R)	Organism, effect ([2]; E. faecalis): E. faecalis (R); Organism, effect ([2]; MRSA): MRSA (R); Organism, effect ([2]; S. epidermidis): S. epidermidis (R)
PF-649 (chain 1 CPRYPFVDVGPAGPWRARWRVGS; chain 2 CPRYPFVDVGPAGPWRARWRVGS; Peptide with targeting and/or antimicrobial activity)	Mycobacteria spp	–	Organism, effect ([2]; E. faecalis): E. faecalis (R)
PF-654 (chain 1 LSGRLAGRR; chain 2 LSGRLAGRR; Peptide with targeting and/or antimicrobial activity)	Mycobacteria spp	S. pneumoniae (A)	Organism, effect ([2]; C. albicans): C. albicans (B); Organism, effect ([2]; MRSA): MRSA (R)

Substance	Target(s) [1, 3]	Organism, effect ([2]; S. pneumoniae)	other results
PF-699 (GRAGVKCRRPTGR; Peptide with targeting and/or antimicrobial activity)	Mycobacteria spp	S. pneumoniae (A)	–
PF-675 (EIIPISPTRRCEMHTMSSAEYRGL; Peptide with targeting and/or antimicrobial activity)	Mycobacteria spp	S. pneumoniae (C)	Organism, effect ([2]; E. faecalis): E. faecalis (R)
PF-643 (chain 1 VRCRL; chain 2 VRCRL; Peptide with targeting and/or antimicrobial activity)	Mycobacteria spp	S. pneumoniae (R)	Organism, effect ([2]; E. faecalis): E. faecalis (R); Organism, effect ([2]; MRSA): MRSA (C)
PF-668 (chain 1 TNAESMALAFRGRVHMSVNIAGLT; chain 2 TNAESMALAFRGRVHMSVNIAGLT; Peptide with targeting and/or antimicrobial activity)	Mycobacteria spp	S. pneumoniae (M)	Organism, effect ([2]; B. subtilis): B. subtilis (A); Organism, effect ([2]; C. albicans): C. albicans (A); Organism, effect ([2]; C. jeikeium): C. jeikeium (D); Organism, effect ([2]; E. faecalis): E. faecalis (D); Organism, effect ([2]; MRSA): MRSA (R); Organism, effect ([2]; S. epidermidis): S. epidermidis (M)
PF-695 (ALSVMLGNIPLVVPNANQL; Peptide with targeting and/or antimicrobial activity)	Mycobacteria spp	S. pneumoniae (C)	Organism, effect ([2]; E. faecalis): E. faecalis (R); Organism, effect ([2]; MRSA): MRSA (R)
PF-698 (SSGRAGVKCRRPTGR; Peptide with targeting and/or antimicrobial activity)	Mycobacteria spp	S. pneumoniae (A)	Organism, effect ([2]; C. albicans): C. albicans (H); Organism, effect ([2]; E. faecalis): E. faecalis (A)
PF-162 (GIRRLHSVENLNREISHRMAGLR; Peptide with targeting and/or antimicrobial activity)	S. epidermidis and MRSA	–	–
PF-328 (NGNEKAFSEVENLVK; Peptide with targeting and/or antimicrobial activity)	S. mutans	–	–
PF-780 (AVYDALVALAAAEHRAELATRDARAKDTYEKIGVHVVVAA; Peptide with targeting and/or antimicrobial activity)	Mycobacteria spp.	–	–
1T-122 (GAIPDPVTHRVDWEEDHQTRPSR; Peptide with targeting and/or antimicrobial activity)	–	–	Target(s) (microorganism bound by the targeting peptide) [1]: S. mitis
1T-44 (DPALADFAAGMRAQVRT; Peptide with targeting and/or antimicrobial activity)	–	–	Target(s) (microorganism bound by the targeting peptide) [1]: S. mutans; also recorded: S. aureus; also recorded: S. epidermidis; also recorded: C. jeikeium; also recorded: C. striatum; also recorded: P. aeruginosa
PF-384 (HISKERFEAY; Peptide with targeting and/or antimicrobial activity)	E. faecalis; also recorded: C. jeikeium; also recorded: C. jejuni	–	–
1T-274 (ETTTEINAIKLHRIKQRSPQGTRRVN; Peptide with targeting and/or antimicrobial activity)	–	–	Target(s) [1, 4]: F. nucleatum; also recorded: S. mutans; also recorded: S. oralis; also recorded: S. sanguinis
PF-792 (ALHASGIQAI; Peptide with targeting and/or antimicrobial activity)	S. mutans	–	–
PF-189 (GNLTRSREAARATQ; Peptide with targeting and/or antimicrobial activity)	S. epidermidis and M. luteus and C. albicans and MRSA and E. faecalis and C. jejuni	–	–
1T-27 (ALFVSLEQFLVVVAKSVFALCHSGTLS; Peptide with targeting and/or antimicrobial activity)	–	–	Target(s) (microorganism bound by the targeting peptide) [1]: S. mutans; also recorded: S. aureus; also recorded: S. epidermidis; also recorded: C. jeikeium; also recorded: C. xerosis; also recorded: C. striatum; also recorded: P. aeruginosa
PF-138 (AVHHSLLFR; Peptide with targeting and/or antimicrobial activity)	S. epidermidis and M. luteus and P. mirabilis and E. coli and C. albicans and MRSA and C. jeikeium and C. jejuni	–	–
PF-400 (VIAWKFRNKFENSGV; Peptide with targeting and/or antimicrobial activity)	S. epidermidis; also recorded: E. coli; also recorded: S. pneumoniae; also recorded: E. faecalis; also recorded: C. jeikeium	–	–
PF-044 (KLKKYIHKPD; Peptide with targeting and/or antimicrobial activity)	–	–	Target(s) [1, 4]: S. epidermidis and M. luteus and MRSA and C. jeikeium
